Literature values as cited in patent US5922690A (priority 1997, dated 1999).

Test system: rabbits
Settings: in vivo

Row | Substance | Multiple of the antithrombotic dose injected without increasing bleeding (rabbit) | Bleeding from a standardized incision in a rabbit's ear, heparin versus DS
1 | dermatan sulfate [DS] | up to forty times | –
2 | heparin | – | much greater
